In the NIST ThermoML archive (doi:10.1021/je400835u):

Assay: xn = mol fraction of the nth substance listed
Settings: 100 kPa, Liquid; for viscosity: Falling or rolling sphere viscometry; for mass density: Vibrating tube method

CCCCC1CCCCC1 [butylcyclohexane] + CCCCCCCC
Settings | mass density, 293.15 K [kg/m3] | mass density, 298.15 K [kg/m3] | mass density, 303.15 K [kg/m3] | mass density, 308.15 K [kg/m3] | mass density, 313.15 K [kg/m3] | viscosity, 293.15 K [mPa·s] | viscosity, 298.15 K [mPa·s] | viscosity, 303.15 K [mPa·s] | viscosity, 308.15 K [mPa·s] | viscosity, 313.15 K [mPa·s]
x1 = 0.0495 | 708.15 | 704.15 | 700.12 | 696.06 | 691.99 | 0.569 | 0.547 | 0.515 | 0.49 | 0.464
x1 = 0.1008 | 713.59 | 709.59 | 705.57 | 701.55 | 697.5 | 0.596 | 0.573 | 0.54 | 0.512 | 0.486
x1 = 0.198 | 723.69 | 719.73 | 715.74 | 711.75 | 707.72 | 0.647 | 0.619 | 0.582 | 0.552 | 0.524
x1 = 0.3011 | 734.16 | 730.24 | 726.28 | 722.33 | 718.33 | 0.707 | 0.671 | 0.63 | 0.592 | 0.565
x1 = 0.4008 | 744.07 | 740.18 | 736.26 | 732.33 | 728.38 | 0.771 | 0.726 | 0.68 | 0.638 | 0.606
x1 = 0.4982 | 753.55 | 749.7 | 745.81 | 741.91 | 737.98 | 0.839 | 0.784 | 0.735 | 0.687 | 0.652
x1 = 0.5985 | 763.12 | 759.29 | 755.43 | 751.56 | 747.67 | 0.918 | 0.854 | 0.799 | 0.747 | 0.705
x1 = 0.6997 | 772.58 | 768.77 | 764.94 | 761.1 | 757.24 | 1.004 | 0.931 | 0.87 | 0.814 | 0.765
x1 = 0.7997 | 781.72 | 777.93 | 774.13 | 770.31 | 766.48 | 1.097 | 1.014 | 0.945 | 0.886 | 0.83
x1 = 0.9001 | 790.72 | 786.95 | 783.18 | 779.39 | 775.59 | 1.2 | 1.108 | 1.029 | 0.962 | 0.898
x1 = 0.951 | 795.17 | 791.42 | 787.66 | 783.88 | 780.1 | 1.25 | 1.156 | 1.07 | 0.996 | 0.93
x1 = 1 | 799.44 | 795.7 | 791.95 | 788.19 | 784.41 | 1.296 | 1.196 | 1.107 | 1.027 | 0.958
